# Results taken from patent US8741871B2, “Trehalose compound, method for producing same, and pharmaceutical product containing the compound” (priority 2008, dated 2014).
# How the values were obtained:
# [1] = system: mouse intraperitoneal macrophages; assay: Measurement of cytokine released from mouse intraperitoneal macrophages (ELISA); type: cell-based; conditions: 100 μM test compound, two hours
# Procedure: Mouse intraperitoneal macrophages, a 40 mM test compound solution, and an RPMI 1640 medium were prepared in the same manner as described above.
# Macrophages were added to a TC-Plate, so that they became 80% confluent. The macrophages were incubated at 37° C. for 2 hours. Thereafter, the supernatant was discarded, and the cells were then washed with 500 μl of RPMI 1640 medium. This washing operation was repeatedly carried out two times. An emulsion solution of the test compound (final concentration: 100 μM) was allowed to act on the macrophages, and two hours later, the medium was transferred into another Eppendorf tube. […] This supernatant was used as a sample, and the released cytokines were analyzed using ELISA kit (IL-6, TNF-α Quantikine Immunoassay (R & D System (trademark)).
# [2] = system: Welch bacillus (Type A; NTCT8237); type: in vivo
# Procedure: As test compounds, 1 mg each of the compound synthesized by the method described in Production Example α-1 and TDCM were weighed. Emulsion solutions of the test compounds (1 mg/ml) were prepared in the same manner as described above.
# […] of Brain Heart Infusion (BHI) (Difco) powders were dissolved in 200 ml of distilled water. 40 ml of the obtained solution (hereinafter this solution is referred to as a “BHI medium”) was withdrawn with a measuring pipette, and it was then added to a 200-ml flask, followed by performing a high-pressure steam sterilization (121° C., 20 minutes). In addition, 5 ml of the BHI medium was added to two screw-top test tubes, and they were then subjected to a high-pressure steam sterilization. Moreover, a glass tube-equipped rubber plug (with a cotton plug) and a glass tube were also subjected to a high-pressure steam sterilization. In a clean bench, an appropriate amount of bacteria for preservation, which had grown on a cooked meat medium, was collected with a sterilized Pasteur pipette, and it was then inoculated on the BHI medium in the aforementioned sterilized screw-top test tube. Subsequently, it was incubated at 37° C. overnight.
# In a clean bench, bacteria that had grown in the screw-top test tube (wherein the inside of the […] in which bacteria had grown became clouded, and gas was generated) was transferred into a 200-ml Erlenmeyer flask, which contained 40 ml of BHI medium. A glass tube was inserted into the medium, so as to carry out nitrogen substitution for 10 minutes. Subsequently, the glass tube-equipped rubber plug (with a cotton plug) was equipped in the Erlenmeyer flask (since Welch bacillus generates gas, it is necessary to make an air vent), and incubation was then carried out at 37° C. for 4 to 5 hours. Thereafter, the cultured Welch bacillus was transferred into a centrifuge tube, it was then centrifuged (9000 rpm, 15 minutes), and the supernatant was then removed. 20 ml of sterilized normal saline solution was added to the precipitate, so that the bacteria were suspended therein. The suspension was centrifuged (9000 rpm, 15 minutes), and the supernatant was then removed.
# Mice (ICR, 6-week-old) were divided into three groups, and the following test was then carried out.
# An emulsion solution containing the test compound, an emulsion solution containing TDCM, or an emulsion solution alone, which was to be used as a control, was intraperitoneally administered in an amount of 100 μg/mouse to a group of four mice (100 μl/mouse, in the case of the emulsion solution alone). Three hours later, Welch bacillus (2.4×10^7 cells/mouse) was intraperitoneally administered to the mice. Thereafter, the condition of the mice was observed.
# [3] = system: THP-1 cells; assay: Measurement of IL-8 released from THP-1 cells (ELISA); type: cell-based, human; conditions: 50 μM test compound, two hours; FIG. 5
# Procedure: An RPMI medium solution was prepared in the same manner as described above. Using this medium solution, an RPMI medium solution of the test compound was prepared as follows.
# 1.0 mg of the test compound was dissolved in 25 μl of DMSO by an ultrasonic treatment for approximately 1 minute. The thus obtained 40 mM test compound stock solution was added to 100 μl of RPMI medium to a final concentration of 50 μM. […] In the case of preparing the vehicle used as a control, instead of the 40 mM test compound stock solution, only the solvent was added in the same amount as described above to the RPMI medium, and it was then treated with ultrasonic wave for 5 seconds.
# THP-1 cells (purchased from Cell Bank, RIKEN BioResource Center) were added to an RPMI medium to a cell density of 1.0×10^6 cells/100 μl and 100 μl each of the obtained solution was dispensed into a sterile Eppendorf tube. 100 μl of the RPMI medium solution of the test compound as prepared above was treated with ultrasonic wave for 5 seconds, and the total amount of the solution was then added to the Eppendorf tube, into which the cells had been dispensed. Two hours later, the reacted Eppendorf tube was centrifuged at 5000 rpm for 5 minutes, and the amount of IL-8 released into the supernatant was then measured using ELISA kit (human IL-8 ELISA kit (R & D Systems (trademark)).
# [4] = system: mouse intraperitoneal infiltrating cells; assay: Cell infiltration into mouse abdominal cavity (cell count, Giemsa staining, flow cytometry); conditions: 100 μg/mouse i.p.
# [5] = system: Pseudomonas aeruginosa; type: in vivo
# [6] = system: Pseudomonas aeruginosa; type: in vivo; conditions: 100 μg/mouse i.p., twenty-four hours later infection; blood fifteen hours after bacteria; FIG. 19
# Procedure: Twenty-four hours later, the mice were infected with 3.0×10^10 CFU/mL Pseudomonas aeruginosa. Fifteen hours after administration of the bacteria, blood was collected from the heart using an injection with a needle tip containing a small amount of heparin, and 200 μL of whole blood was then inoculated on a common agar medium. Thereafter, it was incubated in an incubator for 16 hours. Subsequently, the number of colonies on the medium was counted.
# When there were a large number of cells, whole blood was diluted with a normal saline solution by a factor of 10, 100, 1000 or 10000, and the thus diluted solution was inoculated on a common agar medium.
# [7] = twenty-four hours after administration, flow cytometry
SMILES,amount of IL-6 released from mouse intraperitoneal macrophages ([1]; vehicle approximately 15 pg/ml),amount of TNF-α released from mouse intraperitoneal macrophages ([1]; vehicle approximately 80 pg/ml),"Number of surviving mice/number of treated mice, 2 hours later ([2]; 100 μg/mouse i.p. three hours before Welch bacillus 2.4×10^7 cells/mouse i.p., 2 hours later)","Number of surviving mice/number of treated mice, 6 hours later ([2]; 100 μg/mouse i.p. three hours before Welch bacillus 2.4×10^7 cells/mouse i.p., 6 hours later)","Number of surviving mice/number of treated mice, 12 hours later ([2]; 100 μg/mouse i.p. three hours before Welch bacillus 2.4×10^7 cells/mouse i.p., 12 hours later)","Number of surviving mice/number of treated mice, 24 hours later ([2]; 100 μg/mouse i.p. three hours before Welch bacillus 2.4×10^7 cells/mouse i.p., 24 hours later)","Number of surviving mice/number of treated mice, 48 hours later ([2]; 100 μg/mouse i.p. three hours before Welch bacillus 2.4×10^7 cells/mouse i.p., 48 hours later)","mice that escaped death in Welch bacillus lethal models ([2]; 100 μg/mouse i.p., text summary of Table 4)","IL-8 released from THP-1 cells, activity compared with TDCM [3]","infiltrating cells in the abdominal cavity of mice over time ([4]; 2 hours or 24 hours after administration, FIG. 12)","abundance ratio of the CD11b-positive cells and CD4-positive cells compared with vehicle [4, 7]","total number of CD11b-positive cells, CD4-positive cells and CD8-positive cells compared with vehicle [4, 7]","abundance ratio of the CD8-positive cells compared with vehicle ([4]; twenty-four hours after administration, flow cytometry, FIGS. 13 to 15)","number of infiltrating cells in mouse abdominal cavity compared with vehicle ([4]; twenty-four hours later, FIG. 12)","lethality of Pseudomonas aeruginosa-infected mice, post-administration ([5]; 100 μg/mouse i.p. three hours after infection with Pseudomonas aeruginosa, FIG. 18)","lethality of Pseudomonas aeruginosa-infected mice, pre-administration ([5]; pre-administration 100 μg/mouse i.p., twenty-four hours later 3.0×10^10 CFU/mL Pseudomonas aeruginosa i.p., FIG. 17)",Pseudomonas aeruginosa cells in mouse blood (colonies) [6]
"CCCCCCCCCCC(CCCCCCCCCC)C(=O)OCC1O[C@H](O[C@H]2OC(COC(=O)C(CCCCCCCCCC)CCCCCCCCCC)[C@@H](O)C(O)C2O)C(O)C(O)[C@@H]1O (stereo partly drawn) [Example 1, 6,6′-bis-O-(2-decyldodecanoyl)-α,α′-trehalose]",approximately 200 pg/ml,approximately 1000 pg/ml,4/4,4/4,4/4,3/4,3/4,three out of the four mice,approximately 0.6 times,,,,,,,,
"CCCCCCCCCC(CCCCCCCCC)CC(=O)OCC1O[C@H](O[C@H]2OC(COC(=O)CC(CCCCCCCCC)CCCCCCCCC)[C@@H](O)C(O)C2O)C(O)C(O)[C@@H]1O (stereo partly drawn) [Example 9, 6,6′-bis-O-(3-nonyldodecanoyl)-α,α′-trehalose]",,,,,,,,,approximately 0.8 times,an increase in infiltrating cells was observed time-dependently,hardly changed,15 to 20 times,2 to 3 times,15 to 20 times,significantly suppressed,significantly suppressed,not detected
